Calls of active or inactive are those of the source. No cut-off for these calls is given here. Starred links: 1 amine or outer side, 2 acyl side, 3 side chain; linkers in the order of their positions; H or OH if unused. Residues, ends and D or L forms follow the SMILES beside them. *: point of attachment. X1 = COc1cc(NC(C)CCCNC(=O)C(N)CSSCC(N)C(=O)NC(=O)[C@H](CC(C)C)N*)c2ncccc2c1; Primaquine = COc1cc(NC(C)CCCN*)c2ncccc2c1; Suc = O=C(CCC(=O)[*:2])[*:1]
Legend:
Huh-7 = experiment: Cytotoxicity against human HuH7 cells assessed as reduction in cell viability at 1 to 10 uM; format: cell-based; details: huh-7, 10 µM
Plasmodium berghei = experiment: Antiplasmodial activity against Plasmodium berghei liver-stage forms at 1 to 10 uM; format: functional, organism-based

For CC[C@H](C)[C@H](NC(=O)[C@H](CCCCN)NC(=O)[C@H](CCCCN)NC(=O)[C@H](C)NC(=O)[C@H](CC(C)C)NC(=O)[C@H](C)NC(=O)[C@H](C)NC(=O)[C@H](CC(C)C)NC(=O)[C@H](C)NC(=O)[C@H](CCCCN)NC(=O)[C@H](CC(C)C)NC(=O)[C@H](CC(N)=O)NC(=O)[C@@H](NC(=O)[C@H](CCCCN)NC(=O)CNC(=O)[C@H](CC(C)C)NC(=O)[C@H](CC(C)C)NC(=O)[C@H](Cc1ccc(O)cc1)NC(=O)CNC(=O)[C@H](C)N)[C@@H](C)CC)C(=O)N[C@@H](CC(C)C)C(=O)O, the Activity (Huh-7) was “Non-Toxic” and the Activity (Plasmodium berghei) was “Active”.
CC[C@H](C)[C@H](NC(=O)[C@H](CCCCN)NC(=O)[C@H](CCCCN)NC(=O)[C@H](C)NC(=O)[C@H](CC(C)C)NC(=O)[C@H](C)NC(=O)[C@H](C)NC(=O)[C@H](CC(C)C)NC(=O)[C@H](C)NC(=O)[C@H](CCCCN)NC(=O)[C@H](CC(C)C)NC(=O)[C@H](CC(N)=O)NC(=O)[C@@H](NC(=O)[C@H](CCCCN)NC(=O)CNC(=O)[C@H](CC(C)C)NC(=O)[C@H](CC(C)C)NC(=O)[C@H](Cc1ccc(O)cc1)NC(=O)CNC(=O)[C@H](C)NC(=O)[C@H](CO)NC(=O)[C@H](CC(N)=O)NC(=O)[C@H](CC(C)C)NC(=O)[C@@H](NC(=O)[C@H](Cc1c[nH]c2ccccc12)NC(=O)CN)[C@@H](C)O)[C@@H](C)CC)C(=O)N[C@@H](CC(C)C)C(=O)O was tested, and the Activity (Huh-7) was “Non-Toxic” and the Activity (Plasmodium berghei) was “inactive”.
In the case of CC[C@H](C)[C@H](NC(=O)[C@H](CCCCN)NC(=O)[C@H](CCCCN)NC(=O)[C@H](C)NC(=O)[C@H](CC(C)C)NC(=O)[C@H](C)NC(=O)[C@H](C)NC(=O)[C@H](CC(C)C)NC(=O)[C@H](C)NC(=O)[C@H](CCCCN)NC(=O)[C@H](CC(C)C)NC(=O)[C@H](CC(N)=O)NC(=O)[C@@H](NC(=O)[C@H](CCCCN)NC(=O)CNC(=O)[C@H](CC(C)C)NC(=O)[C@H](CC(C)C)NC(=O)[C@H](Cc1ccc(O)cc1)NC(=O)CNC(=O)[C@H](C)NC(=O)CCC(=O)NCCCC(C)Nc1cc(OC)cc2cccnc12)[C@@H](C)CC)C(=O)N[C@@H](CC(C)C)C(=O)O (some centres undefined), the Activity (Huh-7) was “Non-Toxic” and the Activity (Plasmodium berghei) was “Active”.
CC[C@H](C)[C@H](NC(=O)[C@H](CCCCN)NC(=O)[C@H](CCCCN)NC(=O)[C@H](C)NC(=O)[C@H](CC(C)C)NC(=O)[C@H](C)NC(=O)[C@H](C)NC(=O)[C@H](CC(C)C)NC(=O)[C@H](C)NC(=O)[C@H](CCCCN)NC(=O)[C@H](CC(C)C)NC(=O)[C@H](CC(N)=O)NC(=O)[C@@H](NC(=O)[C@H](CCCCN)NC(=O)CNC(=O)[C@H](CC(C)C)NC(=O)[C@H](CC(C)C)NC(=O)[C@H](Cc1ccc(O)cc1)NC(=O)CNC(=O)[C@H](C)N)[C@@H](C)CC)C(=O)N[C@@H](CC(C)C)C(=O)NC(=O)C(N)CSSCC(N)C(=O)NCCCC(C)Nc1cc(OC)cc2cccnc12 (some centres undefined) (H-AGYLLGKINLKALAALAKKI-X1) was tested, and the Activity (Huh-7) was “Toxic” and the Activity (Plasmodium berghei) was “Active”.
CC[C@H](C)[C@H](NC(=O)[C@H](CC(C)C)NC(=O)[C@H](Cc1ccccc1)NC(=O)[C@H](Cc1ccccc1)NC(=O)CCC(=O)NCCCC(C)Nc1cc(OC)cc2cccnc12)C(=O)N1CCC[C@H]1C(=O)N[C@@H](CCCCN)C(=O)NCC(=O)NCC(=O)N[C@@H](CCCNC(=N)N)C(=O)N[C@@H](CCCCN)C(=O)N[C@@H](CCCCN)C(=O)N[C@@H](CCCNC(=N)N)C(=O)N[C@@H](CCCNC(=N)N)C(=O)N[C@@H](CCC(N)=O)C(=O)N[C@@H](CCCNC(=N)N)C(=O)N[C@@H](CCCNC(=N)N)C(=O)N[C@@H](CCCNC(=N)N)C(=O)N1CCC[C@H]1C(=O)N1CCC[C@H]1C(=O)N[C@@H](CCC(N)=O)C(=O)O (some centres undefined) ({Primaquine-Suc}-FFLIPKGGRKKRRQRRRPPQ-OH) was tested, and the Activity (Huh-7) was “Non-Toxic”.
COc1cc(NC(C)CCCNC(=O)CCC(=O)N[C@@H](CCCNC(=N)N)C(=O)N[C@@H](CCCCN)C(=O)N[C@@H](CCCCN)C(=O)N[C@@H](CCCNC(=N)N)C(=O)N[C@@H](CCCNC(=N)N)C(=O)N[C@@H](CCC(N)=O)C(=O)N[C@@H](CCCNC(=N)N)C(=O)N[C@@H](CCCNC(=N)N)C(=O)N[C@@H](CCCNC(=N)N)C(=O)N2CCC[C@H]2C(=O)N2CCC[C@H]2C(=O)N[C@@H](CCC(N)=O)C(=O)O)c2ncccc2c1 (some centres undefined) ({Primaquine-Suc}-RKKRRQRRRPPQ-OH) was tested, and the Activity (Huh-7) was “Non-Toxic” and the Activity (Plasmodium berghei) was “Active”.
For CC[C@H](C)[C@H](NC(=O)[C@H](CCCNC(=N)N)NC(=O)[C@@H](NC(=O)[C@H](C)NC(=O)[C@@H](NC(=O)[C@@H](NC(=O)[C@H](CC(C)C)NC(=O)[C@H](CCCNC(=N)N)NC(=O)[C@@H](NC(=O)CCC(=O)NCCCC(C)Nc1cc(OC)cc2cccnc12)C(C)C)[C@@H](C)CC)C(C)C)C(C)C)C(=O)N[C@@H](Cc1c[nH]c2ccccc12)C(=O)N[C@@H](CCCNC(=N)N)C(=O)N[C@@H](CCCNC(=N)N)C(=O)O (some centres undefined) ({Primaquine-Suc}-VRLIVAVRIWRR-OH), the Activity (Huh-7) was “Non-Toxic” and the Activity (Plasmodium berghei) was “inactive”.
In the case of COc1cc(NC(C)CCCN)c2ncccc2c1 (centres undefined) [PRIMAQUINE], the Activity (Huh-7) was “Non-Toxic” and the Activity (Plasmodium berghei) was “Active”.
H-FFLIPKGGRKKRRQRRRPPQ-OH was tested, and the Activity (Huh-7) was “Non-Toxic” and the Activity (Plasmodium berghei) was “Active”.
For H-RKKRRQRRRPPQ-OH, the Activity (Huh-7) was “Non-Toxic” and the Activity (Plasmodium berghei) was “Active”.
